Results from patent US4183931A, “2-Ketoalkyl-4(3H)-quinazolinones” (Research Corporation, priority 1977, dated 1980).
Like-named read-outs stand apart in the source and are kept apart here.

Legend:
[1] = Neuropharmacological Profile (NPP): general CNS observational screen (depression, righting reflex, ataxia); details: for Depression: at 300 mg/kg
Procedure: Representative compounds according to the present invention were tested for central nervous system activity by Pharmakon Laboratories of Scranton, Pennsylvania. The battery of general observational procedures used is referred to herein as a Neuropharmacological Profile (NPP). Additionally, representative compounds were tested in the Anticonvulsant Screening Project of the National Institutes of Neurological and Communicative Disorders and Stroke (NINCDS) at the University of Utah under the direction of Dr. Ewart A. Swinyard.
(§1) The procedures for the determination of a neuropharmacological profile involved white male mice of the Carworth Farm Strain CF-1 weighing 18 to 22 grams. […] Intraperitoneal injections were administered in logarithmic progression and sequentially. The dose levels employed routinely were 10, 30, 100 and 300 mg/kg, using four male mice at each dose level. Since this test was conducted in a sequential manner, the first does administered was at 300 mg/kg. […] Approximately thirty-eight signs and symptoms of pharmacological activity can be identified.
(§2) The animals were observed continously for one hour and, if no signs of pharmacological or toxicological activity were present at the end of the first hour, they were intermittently checked for activity every fifteen minutes thereafter for two consecutive hours. […] The observation period began immediately following the injection and the animals were then continuously observed for three hours and intermittently checked thereafter for forty-eight hours. The animals were observed and signs and symptoms of pharmacological activity were recorded continuously until no further symptoms developed and until the symptoms that appeared were no longer present. […] In such instances, the animals were observed beyond this period until they returned to normal. Routinely, the number of animals alive at the end of the forty-eight hour observation period was recorded and the LD50 estimated.
The animals are free to move about for evaluation of spatial orientation, alertness and spontaneous motor activity.
(§3) Since this is a general CNS screening procedure, only peak effects were recorded. Certain measures of behavior and neurological deficit were scored in terms of intensity of effect, while most others were determined on an all or none basis. Thus, in scoring measures which were normally present, e.g., spontaneous activity and skin color, an increase in score from 4 to 8 was used to denote stimulation or enhancement of skin color, whereas a decrease in score from 4 to 0 indicated depression or cyanosis. For scoring measures normally absent, e.g., depression, righting reflex and ataxia, activity was reflected as an increase in score from 0 to 8. The 0 to 8 scale was rounded off so that the actual ratings are only 0, 2, 4, 6 and 8. The compounds were also evaluated for anticonvulsant activity by using the maximal electroshock seizure (MES) test. In the MES study, four mice were dosed intraperitoneally at 100 mg/kg and challenged thirty minutes later with 50 mA, 0.2 second duration of electroshock. A protection ratio (number of mice protected from tonic extension .div. number of mice tested) was then established.
At the termination of the test, the results were recorded and tabulated.
(§4) Scores for behavioral symptoms, including depression, righting reflex and ataxia, are the actual numbers reported. Protection against MES is reported as a percentage. Since four animals were involved in this test, the findings are 0% for none protected, 25% for one out of four, etc. […] In order to maintain reasonable uniformity in the reporting of results, each entry corresponds to a dosage level of 100 mg/kg. Any variations from that dosage are indicated.

[2] = NPP maximal electroshock seizure (MES) protection; format: in vivo, white male mice of the Carworth Farm Strain CF-1; details: Mus musculus, ip; for responders at 100 mg/kg: 0.5 h, at 100 mg/kg i.p., four mice, 30 min after dosing
Procedure: as §1, §3, §4

[3] = NPP lethality (estimated LD50); details: mouse, in vivo, ip
Procedure: as §1, §2, §4

[4] = NINCDS Subcutaneous Pentylenetetrazol (Metrazol) Seizure Threshold Test (scMet); format: in vivo, mice; details: Mus musculus, sc, read-out: scMet: dosage level that elicited protection
Procedure: 1. Neurological Activity Tests. […] Compounds were evaluated for anticonvulsant activity in two seizure models, the maximal electroshock seizure (MES) test and the subcutaneous pentylenetetrazol (Metrazol) seizure threshold (scMet) test.
Subcutaneous Pentylenetetrazol (Metrazol) Seizure Threshold Test (scMet) produces threshold (clonic) seizures. Pentylenetetrazol is administered subcutaneously as a threshold 0.5% solution (in 0.9% sodium chloride) in a loose fold of skin on the back of the neck in a dose of 85 mg/kg. […] Metrazol is given 10 minutes before the beginning of the test to allow for the delay in onset of Metrazol action. The animal is observed for 30 minutes. Failure to observe even a threshold seizure (a single episode of clonic spasms at least 5 seconds in duration) is defined as protection and indicates anticonvulsant activity in the test compound. These two methods of seizure provocation reliably elicit well-characterizied seizure phenomena.
The ability of a compound to prevent maximal electroshock seizures is believed to correlate with its ability to prevent the spread of seizure discharge through neural tissue. Activity against maximal electroshock seizures is thought to indicate potential efficacy in the treatment of major motor (grand mal) seizures. […] Selective action in the test is believed to indicate potential efficacy against absence (petit mal) seizures.
As described earlier, the MES, scMet and Rotorod tests were performed one-half hour and four hours after administration of each compound.
In the Secondary Evaluation, median effective doses (ED50) are determined in the MES, scMet and Rotorod assays using the procedures defined in Pharmacology, 95, 99-113 (1949).
Separate groups of animals are used for each time period. The times of peak toxic and anticonvulsant effect are taken from the resulting graph of percent of animals responding vs. time, and the determinations of median effective doses are performed at those times.

[5] = at 100 mg/kg, i.p., mice, score 0-8
[6] = at 30 mg/kg (value in parentheses), i.p., mice, score 0-8
[7] = after 4 hr (value in parentheses)

Row | SMILES | CNS Depression [1, 5] | responders at 100 mg/kg [2] [%] | LD50 at 48 h [3] [mg/kg] | CNS Depression [1, 6] | other results
1 | O=C(Cc1nc2ccccc2c(=O)n1-c1ccccc1Cl)c1ccccn1 [IVb, 2-[2-Oxo-2-(2-pyridyl)ethyl]-3-o-chlorophenyl-4(3H)-quinazolinone] | 0 | 0 | 562 |  | Depression ([1]; i.p., mice, score 0-8): 2
2 | CCOC(=O)C(=O)Cc1nc2ccccc2c(=O)n1-c1ccccc1C [IIIm, 2-Ethoxallylmethyl-3-o-tolyl-4(3H)-quinazolinone] | 4 | 0 | > 562 |  | 
3 | Cc1ccccc1-n1c(CC(=O)C(F)(F)F)nc2ccccc2c1=O [IIIa, 2-(3,3,3-Trifluoroacetonyl)-3-o-tolyl-4(3H)-quinazoline] |  | 50 | > 562 | 4 | Ataxia [1, 5]: 2
4 | Cc1nc2ccccc2c(=O)n1-c1ccccc1 [phenyl H, 2-methyl-3-phenyl-4(3H)-quinazolinone, reference compound] | 8 |  | 562 | 4 | Ataxia [1, 5]: 8; Righting reflex [1, 5]: 8; responders at 30 mg/kg ([2]; conducted at 30 mg/kg i.p.): 0%
5 | Cc1ccc(-n2c(CC(=O)C(F)(F)F)nc3ccccc3c2=O)cc1 [IVi, 2-(3,3,3-Trifluoroacetonyl)-3-p-tolyl-4(3H)-quinazolinone] | 4 | 100 | 562 |  | Ataxia [1, 5]: 2
6 | Cc1ccccc1-n1c(CC(=O)c2ccccn2)nc2ccccc2c1=O [IIIb, 2-[2-Oxo-2-(2-pyridyl)ethyl]-3-o-tolyl-4-(3H)-quinazolinone] | 2 | 0 | > 562 |  | minimal effective dose ([4]; after 0.5 hr): 300 mg/kg
7 | COc1ccc(C(=O)Cc2nc3ccccc3c(=O)n2-c2ccccc2C)cc1 [IIIi, 2-[2-Oxo-2-(4-methoxyphenyl)ethyl]-3-o-tolyl-4(3H)-quinazolinone] | 2 | 0 | > 562 |  | Depression ([1]; i.p., mice, score 0-8): 4
8 | O=C(Cc1nc2ccccc2c(=O)n1-c1ccccc1)C(F)(F)F [IVe, 2-(3,3,3-Trifluoroacetonyl)-3-phenyl-4(3H)-quinazolinone] | 2 | 0 | 562 |  | 
9 | Cc1ccc(-n2c(C)nc3ccccc3c2=O)cc1 [p-tolyl H, 2-methyl-3-p-tolyl-4(3H)-quinazolinone, reference compound] | 8 | 100 | > 562 | 4 | Ataxia [1, 5]: 8
10 | Cn1c(CC(=O)c2ccccc2)nc2ccccc2c1=O [IVr, 2-(2-Oxo-2-phenylethyl)-3-methyl-4(3H)-quinazolinone] |  |  |  |  | minimal effective dose [4, 7]: 300 mg/kg
11 | Cc1ccccc1-n1c(CC(=O)C=Cc2ccccc2)nc2ccccc2c1=O [IIIf, 2-(2-Oxo-4-phenylbut-3-enyl)-3-o-tolyl-4(3H)-quinazolinone] | 4 | 25 | > 562 | 2 | 
12 | Cc1ccccc1-n1c(CCc2ccccc2)nc2ccccc2c1=O [CH2 C6 H5, reference compound] |  |  |  |  | minimal effective dose ([4]; after 0.5 hr): 300 mg/kg; minimal effective dose [4, 7]: 300 mg/kg
13 | Cc1ccc(-n2c(CC(=O)c3cccnc3)nc3ccccc3c2=O)cc1 [IVk, 2-[2-Oxo-2-(3-pyridyl)ethyl]-3-p-tolyl-4(3H)-quinazolinone] | 4 | 0 | 562 |  | 
14 | COc1cc(C(=O)Cc2nc3ccccc3c(=O)n2-c2ccccc2C)cc(OC)c1OC [IIIj, 2-[2-Oxo-2-(3,4,5-trimethoxyphenyl)ethyl]-3-o-tolyl-4(3H)-quinazolinone] | 2 | 0 | > 562 |  | Depression ([1]; i.p., mice, score 0-8): 4
15 | CC(=O)Cc1nc2ccccc2c(=O)n1-c1ccccc1C [IIIn, 2-Acetonyl-3-o-tolyl-4(3H)-quinazolinone] | 8 | 0 | > 562 | 4 | behavioral activity compared with methaqualone ([1]; NPP summary): equal to methaqualone in affecting behavioral activity; muscle relaxant properties ([1]; NPP summary): possible muscle relaxant properties not exhibited by methaqualone itself; minimal effective dose [4, 7]: 300 mg/kg
16 | Cc1ccccc1-n1c(CC(=O)c2ccc(Cl)cc2)nc2ccccc2c1=O [IIIh, 2-[2-Oxo-2-(4-chlorophenyl)ethyl]-3-o-tolyl-4(3H)-quinazolinone] | 0 | 0 | 316 |  | Depression ([1]; i.p., mice, score 0-8): 4
17 | Cn1c(CC(=O)c2cccnc2)nc2ccccc2c1=O [IVs, 2-[2-Oxo-2-(3-pyridyl)ethyl]-3-methyl-4(3H)-quinazolindone] | 4 | 0 | 422 |  | 
18 | Cc1ccc(-n2c(CC(=O)c3ccncc3)nc3ccccc3c2=O)cc1 [IVl, 2-[2-Oxo-2-(4 pyridyl)ethyl]-3-p-tolyl-4(3H)-quinazolinone] |  |  |  |  | minimal effective dose [4, 7]: 300 mg/kg
19 | Cc1ccccc1-n1c(CC(=O)c2ccccc2)nc2ccccc2c1=O [IIIg, 2-(2-Oxo-2-phenylethyl)-3-o-tolyl-4(3H)-quinazolinone] | 4 | 0 | > 562 | 4 | 
20 | Cc1ccccc1-n1c(CC(=O)c2cccnc2)nc2ccccc2c1=O [IIIc, 2-[2-Oxo-2-(3-pyridyl)ethyl]-3-o-tolyl-4(3H)-quinazolinone] | 6 | 100 | 562 | 4 | Ataxia [1, 5]: 8; minimal effective dose [4, 7]: 300 mg/kg
21 | O=C(Cc1nc2ccccc2c(=O)n1-c1ccccc1)c1ccncc1 [IVh, 2-[2-Oxo-2-(4-pyridyl)ethyl]-3-phenyl-4(3H)-quinazolinone] |  |  |  |  | minimal effective dose ([4]; after 0.5 hr): 100 mg/kg
